Test results reported in patent US20230077280A1, “THERAPEUTIC COMPOUNDS FOR METHODS OF USE IN INSULIN RESISTANCE” (Baylor College of Medicine, priority 2019, published 2023).

Legend:
Fbxo40 [1] = test: qPCR of Fbxo40 mRNA in TA muscles of CKD mice; assay type: in vivo; settings: vs D5W diluent (FIG. 2G)
Procedure: (§1) Animals: The experimental procedures were approved by the Institutional Animal Care and Use Committee of Baylor College of Medicine. Wild type (WT) mice (C57BL/6) were purchased from Jackson lab (Bar Harbor, Me.). To create a model of CKD, 8-10 week old mice underwent subtotal nephrectomy or sham-operated control as described; ^31 CKD mice with a BUN ˜80 mg/dl were studied. CKD or sham-operated control mice were assigned to two subgroups: one subgroup was injected intraperitoneally with TTI-101 (12.5 mg/kg body weight in D5W) every other day for 2 weeks, while the other subgroup received an identical volume of D5W for 2 weeks.
(§2) RNA extraction and quantitative real-time PCR (qPCR): RNAs were isolated using the RNeasy kit (Qiagen, Valencia, Calif.) as instructed by the company. RT-PCR was performed to obtain relative gene expressions by calculating cycle threshold (Ct) values using GAPDH as an internal control (relative expression=2(sample Ct−GAPDH Ct)).^35 Sequences of primers will be provided upon request.

p-Stat3 = test: Western blotting of gastrocnemius muscle lysates of CKD mice: p-Stat3; assay type: in vivo; settings: 12.5 mg/kg i.p. every other day for 2 weeks, western blotting (FIG. 1D)
Procedure: Animals: The experimental procedures were approved by the Institutional Animal Care and Use Committee of Baylor College of Medicine. Wild type (WT) mice (C57BL/6) were purchased from Jackson lab (Bar Harbor, Me.). To create a model of CKD, 8-10 week old mice underwent subtotal nephrectomy or sham-operated control as described; ^31 CKD mice with a BUN 80 mg/dl were studied. […] Antibodies: The primary antibodies of p-Akt (Ser473) (D9E) #4060, Akt (40D4)#2920, p-Stat3 (Tyr705) ([MUT])#9145, Stat3(124H6)#9139 were from Cell Signaling technology (Beverly, Mass., USA). Antibody against Fbxo40 #ab190688 was from Abcam (Cambridge, Mass., USA). Antibody against IRS1 #611395 was obtained from BD Biosciences (San Jose, Calif.). Anti-GAPDH#PA1-987 was from Thermo Fisher Scientific. The antibody was verified by the molecular size of recognized proteins.

p-Akt [2] = test: Western blotting of muscle lysates of HFD mice: p-Akt; assay type: in vivo; settings: 12.5 mg/kg i.p. every other day for 4 weeks, vs diluent (FIG. 3J)
Procedure: (§3) Another model was generated of insulin resistance by feeding wild type mice a high fat diet (HFD: 58% kcal from fat, Research Diets, New Brunswick, N.J.) for 12 weeks while control mice were fed the regular diet (RD: 11% kcal from fat). To study the effect of p-Stat3 on insulin resistance, HFD-fed mice were randomly assigned to two subgroups: one subgroup was injected intraperitoneally (i.p.) with TTI-101 (12.5 mg/kg body weight in D5W) every other day for 4 weeks, while the other subgroup received an identical volume of D5W for 4 weeks. Antibodies: The primary antibodies of p-Akt ([…]) (D9E) #4060, Akt (40D4)#2920, p-Stat3 ([…]) (D3A7)#9145, Stat3(124H6)#9139 were from Cell Signaling technology (Beverly, Mass., USA). Antibody against Fbxo40 #ab190688 was from Abcam (Cambridge, Mass., USA). Antibody against IRS1 #611395 was obtained from BD Biosciences (San Jose, Calif.). Anti-GAPDH#PA1-987 was from Thermo Fisher Scientific. The antibody was verified by the molecular size of recognized proteins.

p-Akt [3] = test: Western blotting of gastrocnemius muscle lysates of CKD mice: p-Akt; assay type: in vivo; settings: 12.5 mg/kg i.p. every other day for 2 weeks, western blotting (FIG. 1D)
Procedure: as §1, with “80” for “˜80”, “weeks. Antibodies: The primary antibodies of p-Akt (Ser473) (D9E) #4060, Akt (40D4)#2920, p-Stat3 (Tyr705) ([…])#9145, Stat3(124H6)#9139 were from Cell Signaling technology (Beverly, Mass., USA). Antibody against Fbxo40 #ab190688 was from Abcam (Cambridge, Mass., USA). Antibody against IRS1 #611395 was obtained from BD Biosciences (San Jose, Calif.). Anti-GAPDH#PA1-987 was from Thermo Fisher Scientific. The antibody was verified by the molecular size of recognized proteins.” for “weeks.”

IRS1 [4] = test: qPCR of IRS1 mRNA in TA muscles of CKD mice; assay type: in vivo; settings: vs D5W diluent (FIG. 2H)
Procedure: as §1, §2

Fbxo40 [5] = test: Western blotting of tibialis anterior muscle lysates of CKD mice: Fbxo40 protein; assay type: in vivo; settings: western blotting (FIGS. 2I and 2J)
Procedure: as §1, with “80” for “˜80”, “weeks. Antibodies: The primary antibodies of p-Akt (Ser473) (D9E) #4060, Akt (40D4)#2920, p-Stat3 (Tyr705) ([…])#9145, Stat3(124H6)#9139 were from Cell Signaling technology (Beverly, Mass., USA). Antibody against Fbxo40 #ab190688 was from Abcam (Cambridge, Mass., USA). Antibody against IRS1 #611395 was obtained from BD Biosciences (San Jose, Calif.). Anti-GAPDH#PA1-987 was from Thermo Fisher Scientific. The antibody was verified by the molecular size of recognized proteins.” for “weeks.”

mice with CKD [6] = settings: earlier experiments (refs 33, 34); cited from earlier work
mice with CKD [7] = test: CKD mice (subtotal nephrectomy): body weight, fasting blood glucose, glucose tolerance test; assay type: in vivo
Procedure: Animals: The experimental procedures were approved by the Institutional Animal Care and Use Committee of Baylor College of Medicine. Wild type (WT) mice (C57BL/6) were purchased from Jackson lab (Bar Harbor, Me.). To create a model of CKD, 8-10 week old mice underwent subtotal nephrectomy or sham-operated control as described; ^31 CKD mice with a BUN ˜80 mg/dl were studied. CKD or sham-operated control mice were assigned to two subgroups: one subgroup was injected intraperitoneally with TTI-101 (12.5 mg/kg body weight in D5W) every other day for 2 weeks, while the other subgroup received an identical volume of D5W for 2 weeks. For glucose tolerance tests (GTT), mice with free access to water were fasted for 16 hrs and then injected intraperitoneally (i.p.) with […] and tail vein blood was collected at 0, 30, 60 and 120 min intervals to measure blood glucose concentrations using a True Track Glucometer. For insulin tolerance test (ITT), mice were fasted for 4 hrs, then were injected i.p. with 2 units/kg insulin; tail vein blood was collected after 0, 30, 60 and 120 min to measure blood glucose concentrations. Changes in blood glucose were analyzed as the “area under curve” (AUC) method using Statstodo program (http://www.statstodo.com/AUC_Exp.php).

HFD-fed mice = test: High fat diet (HFD) mice: fasting blood glucose, glucose tolerance test, insulin tolerance test; assay type: in vivo; settings: mice fed HFD 12 weeks
Procedure: Another model was generated of insulin resistance by feeding wild type mice a high fat diet (HFD: 58% kcal from fat, Research Diets, New Brunswick, N.J.) for 12 weeks while control mice were fed the regular diet (RD: 11% kcal from fat). To study the effect of p-Stat3 on insulin resistance, HFD-fed mice were randomly assigned to two subgroups: one subgroup was injected intraperitoneally (i.p.) with TTI-101 (12.5 mg/kg body weight in D5W) every other day for 4 weeks, while the other subgroup received an identical volume of D5W for 4 weeks. For glucose tolerance tests (GTT), mice with free access to water were fasted for 16 hrs and then injected intraperitoneally (i.p.) with […] and tail vein blood was collected at 0, 30, 60 and 120 min intervals to measure blood glucose concentrations using a True Track Glucometer. For insulin tolerance test (ITT), mice were fasted for 4 hrs, then were injected i.p. with 2 units/kg insulin; tail vein blood was collected after 0, 30, 60 and 120 min to measure blood glucose concentrations. Changes in blood glucose were analyzed as the “area under curve” (AUC) method using Statstodo program (http://www.statstodo.com/AUC_Exp.php).

IRS1 [8] = test: Western blotting of muscle lysates of HFD mice: IRS1; assay type: in vivo; settings: 12.5 mg/kg i.p. every other day for 4 weeks, vs diluent (FIG. 3J)
Procedure: as §3

## COc1ccc(S(=O)(=O)Nc2cc(-c3c(O)ccc4ccccc34)c(O)c3ccccc23)cc1 [TTI-101, N-(1′,2-dihydroxy-1,2′-binaphthalen-4′-yl)-4-methoxybenzenesulfonamide]
Fbxo40 [1]
  Fbxo40 mRNA in muscles: suppression
p-Stat3
  p-Stat3 in muscle lysates: suppressed
p-Akt [2]
  p-Akt levels in muscles: higher levels
p-Akt [3]
  p-Akt in muscle lysates: increasing
IRS1 [4]
  IRS1 mRNAs in muscles: increased
Fbxo40 [5]
  Fbxo40 protein in muscles: significantly decreased
Mice with CKD [6]
  body weights of mice: increases
Mice with CKD [7]; 12.5 mg/kg i.p. every other day for 2 weeks, vs D5W diluent (FIG. 1C)
  glucose tolerance: significantly improved
Mice with CKD [7]; 12.5 mg/kg i.p. every other day, after 2 weeks of treatment, vs D5W diluent (FIG. 1A)
  body weight: increased
Mice with CKD [7]; 12.5 mg/kg i.p. every other day, after 2 weeks of treatment, vs D5W diluent (FIG. 1B)
  blood glucose levels (fasting, 16 hr): decreased
HFD-fed mice; then 12.5 mg/kg i.p. every other day for 4 weeks with HFD continued, vs diluent (FIG. 3G)
  fasting values of blood glucose: decreased
HFD-fed mice; then 12.5 mg/kg i.p. every other day for 4 weeks, vs diluent (FIG. 3H)
  glucose tolerance: improved
HFD-fed mice; then 12.5 mg/kg i.p. every other day for 4 weeks, vs diluent (FIG. 3I)
  insulin tolerance: improved
IRS1 [8]
  IRS1 levels in muscles: higher levels
